What follows are compounds tested against T1, Jarid1B (Homo sapiens, UniProt Q9UGL1) (assay: Jarid1B in vitro enzyme inhibition assay (TR-FRET)). Details: 0.8 nM Jarid1B, 300 nM H3K4me3-biotin peptide, 2 μM alpha-ketoglutaric acid.
T1 construct: purchased BPS Bioscience (or custom made by MolecularThroughput) 50121
T1 sequence (Q9UGL1 2-751): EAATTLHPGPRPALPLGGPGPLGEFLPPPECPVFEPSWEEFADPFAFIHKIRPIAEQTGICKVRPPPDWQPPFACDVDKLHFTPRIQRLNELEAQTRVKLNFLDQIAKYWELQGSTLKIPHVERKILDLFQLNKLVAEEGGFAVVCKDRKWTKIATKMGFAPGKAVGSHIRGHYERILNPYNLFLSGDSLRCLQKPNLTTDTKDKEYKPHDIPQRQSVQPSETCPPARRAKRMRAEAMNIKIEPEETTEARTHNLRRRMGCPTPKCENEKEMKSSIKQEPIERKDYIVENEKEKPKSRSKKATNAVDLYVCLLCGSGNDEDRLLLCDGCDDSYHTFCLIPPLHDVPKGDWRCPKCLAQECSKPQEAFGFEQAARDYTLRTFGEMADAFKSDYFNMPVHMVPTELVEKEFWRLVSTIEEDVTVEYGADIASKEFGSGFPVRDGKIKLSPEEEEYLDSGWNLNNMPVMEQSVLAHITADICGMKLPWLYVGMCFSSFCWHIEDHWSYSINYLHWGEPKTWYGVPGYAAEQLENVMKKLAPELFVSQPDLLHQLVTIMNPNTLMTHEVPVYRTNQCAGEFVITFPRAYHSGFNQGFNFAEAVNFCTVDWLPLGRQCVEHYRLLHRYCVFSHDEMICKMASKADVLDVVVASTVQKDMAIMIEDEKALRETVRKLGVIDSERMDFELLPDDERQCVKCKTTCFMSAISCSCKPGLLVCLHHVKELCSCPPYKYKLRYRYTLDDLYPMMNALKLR
Type: biochemical
Text: This assay determines the ability of a test compound to inhibit Jarid1B, JMJD2C and JMJD3 demethylase activity. Baculovirus-expressed Jarid1B (GenBank Accession # NM-006618, AA 2-751) was purchased from BPS Bioscience (Cat #50121) or custom made by MolecularThroughput. Baculovirus-expressed JMJD2C (GenBank Accession # BC143571, AA 2-372) was purchased from BPS Bioscience (Cat #50105). Baculovirus-expressed JMJD3 (GenBank Accession # NM_001080424, AA1043-end) was purchased from BPS Bioscience (Cat #50115).
The ability of test compounds to inhibit the activity of Jarid1B was determined in 384-well plate format under the following reaction conditions: 0.8 nM Jarid1B, 300 nM H3K4me3-biotin labeled peptide (Anaspec cat #64357), 2 μM alpha-ketoglutaric acid in assay buffer of 50 mM HEPES, pH 7.3, 0.005% Brij35, 0.5 mM TCEP, 0.2 mg/ml BSA, 50 μM sodium L-ascorbate, and […] ammonium ironII sulfate. Reaction product was determined quantitatively by TR-FRET after the addition of detection reagent Phycolink Streptavidin-allophycocyanin (Prozyme) and Europium-anti-mono-or di-methylated historic H3 lysine 4 (H3K4me1-2) antibody (PerkinElmer) in the presence of 5 mM EDTA in LANCE detection buffer (PerkinElmer) at a final concentration of 25 nM and 1 nM, respectively.
The assay reaction was initiated by the following: 2 μl of the mixture of 900 nM H3K4me3-biotin labeled peptide and 6 μM alpha-ketoglutaric acid with 2 μl of 11-point serial diluted inhibitor in 3% DMSO was added to each well of the plate, followed by the addition of 2 μl of 2.4 nM Jarid1B to initiate the reaction. […] Plates were read by EnVisionMultilabel Reader in TR-FRET mode (excitation at 320 nm, emission at 615 nm and 665 nm) after 1 hr incubation at room temp. A ratio was calculated (665/615) for each well and fitted to determine inhibition constant (IC50).
The ability to inhibit demethylase activity was quantified and the respective IC50 value was determined for substituted triazolylpyridine derivative compounds. […]
`Fc1cnccc1-c1nn[nH]c1C(F)(F)F` [Example 1, 3-fluoro-4-[5-(trifluoromethyl)-1H-1,2,3-triazol-4-yl]pyridine] was tested, and the IC50 was greater than 10 µM. With `Fc1ccc(Cl)cc1Nc1cnccc1-c1nn[nH]c1C(F)(F)F` [Example 2, N-(5-chloro-2-fluorophenyl)-4-[5-(trifluoromethyl)-1H-1,2,3-triazol-4-yl]pyridin-3-amine] the IC50 was greater than 10 µM. For `FC(F)(F)c1[nH]nnc1-c1ccncc1NCC1CCCc2ccccc21` (stereo not drawn) [Example 3, N-[(1,2,3,4-tetrahydronaphthalen-1-yl)methyl]-4-[5-(trifluoromethyl)-1H-1,2,3-triazol-4-yl]pyridine-3-amine], the IC50 was greater than 10 µM.

— patent US10870634B2, “Histone demethylase inhibitors” (CELGENE QUANTICEL RESEARCH, INC., priority 2016, dated 2020)
